Measured values published in patent publication US20260182575A1, “MOLECULES HAVING PESTICIDAL UTILITY AND INTERMEDIATES AND PROCESSES RELATED THERETO” (CORTEVA AGRISCIENCE LLC, priority 2022, published 2026).

How the values were obtained:
Format in all cases: in vivo
[1] = system: Soybean Looper (Chrysodeixis includens, PSEPIN, SBL); assay: Bioassay 4: soybean looper, artificial diet, 128-cell tray; conditions: AI alone
Description: (§1) Stock solutions were prepared with F1 as well as for each of the active ingredients individually. Test solutions were prepared from the stock solutions. Test solutions were prepared containing F1, the individual active ingredients, and mixtures of F1 with each of the active ingredients. The test solution for F1 was prepared by adding 500 μL of the stock solution to a 25 mL glass vial, then adding 500 μL of a 9:1 mixture of acetone:water. The individual active ingredients were prepared by adding 500 μL of stock solution to a 25 mL glass vial, then adding 500 μL of a 9:1 mixture of acetone:water. The test solutions containing mixtures of F1, and the individual active ingredients were prepared by adding 500 μL of the active ingredient stock solution to a 25 mL glass vial, followed by 500 μL of the F1 stock solution, creating a test solution containing 0.04% (w/v) of F1 and 0.4% (w/v) of the active ingredient. Each test solution was serially diluted to create desired doses of test solutions (F1 at 0.04% (w/v), 0.004% (w/v), 0.0004% (w/v), 0.00004% (w/v), 0.000004% (w/v), and 0.0000004% (w/v) and active ingredients at 0.4% (w/v), 0.04% (w/v), 0.004% (w/v), 0.0004% (w/v), 0.00004% (w/v), and 0.000004% (w/v)).
(§2) The test solutions were tested against CEW, FAW, and SBL using the following procedure: an artificial lepidopteran diet (Multispecies Lepidopteran Diet, Southland Products) was distributed in 128-cell bioassay trays (Frontier Agricultural Sciences™). 50 μL of test solution was pipetted into a cell in the bioassay tray. (The test solution doses of 0.04% (w/v), 0.004% (w/v), 0.0004% (w/v), 0.00004% (w/v), 0.000004% (w/v), and 0.0000004% (w/v) translated to concentrations of 5, 0.5, 0.05, 0.005, 0.0005, and 0.00005 μg/cm^2 on the diet, respectively.) A reference treatment (solvent check) was treated with the diluent only. Each treatment was replicated 8 times for each species. A 2nd instar CEW, FAW, or SBL larva was placed on top of the diet in each cell and was contained with a clear perforated adhesive lid. Test trays were held at approximately 26° C. and ambient relative humidity (RH) prior to grading.
(§3) After 5 days, the number of live larvae were recorded from each cell and percent control was measured using Abbott's correction formula (W. S. Abbott, J. Econ. Entomol. 18 (1925), pp. 265-267) as follows:
(§4) where X=No. of live larvae on solvent check and Y=No. of live larvae on treated diet. In Table B4 the “Expected % Control” was calculated using the method described in Colby S. R., Weeds, 1967, 15, 20-22. Bioassay 5: Neotropical Brown Stink Bug (Euschistus heros, EUSCHE, “BSB”).

[2] = system: Fall Armyworm (Spodoptera frugiperda, LAPHFR, FAW); assay: Bioassay 4: fall armyworm, artificial diet, 128-cell tray; conditions: AI alone
Description: as §1, §2, §3, §4

[3] = system: Green Peach Aphid (Myzus persicae, MYZUPE, GPA); assay: Bioassay 1: green peach aphid, cabbage seedling foliar spray; conditions: AI alone at the rate of Wt Ratio F1:AI 1:40000 (F1 0.04), 3 days
Description: Bioassay 1: Green Peach Aphid (Myzus persicae, MYZUPE, “GPA”).
Stock solutions of F1 and various active ingredients were prepared initially at a concentration of 4 milligrams per milliliter (mg/mL) for F1 and 0.1 mg/mL for the active ingredients, respectively, using a 1:1 mixture of acetone:methanol as a diluent. Stock solutions were prepared with F1 as well as for each of the active ingredients individually. Test solutions were prepared from the stock solutions. Test solutions were prepared containing F1, the individual active ingredients, and mixtures of F1 with each of the active ingredients. The test solutions for F1 and the individual active ingredients were prepared by adding 750 microliters (μL) of stock solution to a 25 mL glass vial, then adding 750 μL of 1:1 acetone:methanol solvent, followed by the addition of 13.5 mL water with 0.025% Tween® 20 to create a 0.0005% (weight/volume (w/v)) solution. The test solutions containing mixtures of F1, and the individual active ingredients were prepared by adding 750 μL of the active ingredient stock solution to a 25 mL glass vial, followed by 750 μL of the F1 stock solution, then by the addition of 13.5 mL water with 0.025% Tween® 20 to create a test solution containing 0.0005% (w/v) F1 and 0.0005% (w/v) of the active ingredient. Each test solution was serially diluted to create desired doses of test solutions (0.0005% (w/v), 0.000125% (w/v), 0.00003125% (w/v), 0.0000078% (w/v), 0.00000195% (w/v), and 0.0000005% (w/v)). In test solutions containing mixtures of F1 and the active ingredients, the active ingredients were diluted as described above, but the concentration of F1 was held constant (0.04% (w/v)).
The test solutions were tested against GPA using the following procedure: cabbage seedlings, grown in 3-inch pots with 2-3 small (3-5 centimeter (cm)) true leaves, were used as test substrate. The seedlings were infested with 20-50 GPA (wingless adult and nymph stages) one day prior to chemical application. Four pots with individual seedlings were used for each treatment. A hand-held aspirator-type sprayer was used for spraying a solution to both sides of […] leaves until runoff. Reference plants (solvent check) were sprayed with the diluent only (0.025% Tween® 20 and 10% acetone:methanol (1:1) in water). Treated plants were held in a holding room for three days at approximately 25° C. and ambient relative humidity (RH about 20% to about 45%) prior to grading. Evaluation was conducted by counting the number of live aphids per plant under a microscope three days after treatment. Percent control was measured using Abbott's correction formula (W. S. Abbott, J. Econ. Entomol. 18 (1925), pp. 265-267) as follows:
where X=No. of live aphids on solvent check plants and Y=No. of live aphids on treated plants. In Table B1 the “Expected % Control” was calculated using the method described in Colby S. R., Weeds, 1967, 15, 20-22. Bioassay 2: Sweet Potato Whitefly (Bemisia tabaci, BEMITA, “SPW”).

[4] = system: Corn Earworm (Helicoverpa zea, HELIZE, CEW); assay: Bioassay 4: corn earworm, artificial diet, 128-cell tray; conditions: AI alone
Description: as §1, §2, §3, §4

[5] = system: Sweet Potato Whitefly (Bemisia tabaci, BEMITA, SPW); assay: Bioassay 2: sweet potato whitefly, cotton seedling foliar spray; conditions: AI alone, Wt % AI 0.0001, 7-9 days
Description: Stock solutions were prepared with F1 as well as for each of the active ingredients individually. Test solutions were prepared from the stock solutions. Test solutions were prepared containing F1, the individual active ingredients, and mixtures of F1 with each of the active ingredients. The test solutions for F1 and the individual active ingredients were prepared by adding 500 μL of stock solution to a 25 mL glass vial, then adding 500 μL of acetone, followed by the addition of 9 mL water with 0.025% Tween® 20 to create a 0.001% (w/v) solution. The test solutions containing mixtures of F1, and the individual active ingredients were prepared by adding 500 μL of the active ingredient stock solution to a 25 mL glass vial, followed by 500 μL of the F1 stock solution, then by the addition of 9 mL water with 0.025% Tween® 20 to create a test solution containing 0.001% (w/v) F1 and 0.001% (w/v) of the active ingredient. Each test solution was serially diluted to create desired doses of test solutions (0.001% (w/v), 0.0001% (w/v), 0.00001% (w/v), 0.000001% (w/v), 0.0000001% (w/v), and 0.00000001% (w/v)).
The test solutions were tested against SPW using the following procedure: Cotton seedlings grown in 3-inch pots, pruned so that only one true leaf remained, were used as test substrate. Adult B. tabaci were allowed to colonize the cotton plants and lay eggs for 24 hours after which all adults were removed from the plants using compressed air. Plants were monitored for egg development, and when crawler emergence was underway (>25% emergence based on visual examination using a microscope), the plants were sprayed using the test solutions and methods described above for green peach aphids (GPA). Treated plants were held in a holding room at approximately 25° C. and ambient relative humidity (RH) prior to grading. Evaluation was conducted by counting the number of developed 2-3 instar nymphs per plant under a microscope 7-9 days after treatment. Percent control was measured using Abbott's correction formula (W. S. Abbott, J. Econ. Entomol. 18 (1925), pp. 265-267) as follows:
where X=No. of live nymphs on solvent check plants and Y=No. of live nymphs on treated plants. In Table B2 the “Expected % Control” was calculated using the method described in Colby S. R., Weeds, 1967, 15, 20-22. Bioassay 3: Western Flower Thrips (Frankliniella occidentalis, FRANOC, “WFT”).

[6] = system: Western Corn Rootworm (Diabrotica virgifera virgifera, DIABVI, WCR); assay: Bioassay 8: western corn rootworm, soil drench, corn root protection; conditions: AI alone, UgActive AI 1; DIABVI, soil drench, 13 days
Description: Corn seeds were planted in steam pasteurized soil filled greenhouse pots. Western corn rootworm Diabrotica virgifera virgifera eggs supplied from the Corteva Agriscience in Johnston, IA US, were suspended in a 0.08% agar solution added into the soil. Stock solutions of F1 and active ingredients were prepared at a concentration of either 250 or 500 ugai/10 mL for F1 and active ingredients at the ratios of (F1:AI) 1:0.004; 1:0.01; 1:0.02; 1:0.04; 1:0.08; 1:0.1; 1:0.15; 1:0.2; 1:0.4; 1:2; or 1:4, using a 1:1 solution of acetone:water as a diluent. A soil application of solutions were applied as a 10 mL drench over the soil. Plants were grown in the greenhouse for 13 days at 25 C after which the roots were removed from the soil, washed, and measured to determine the length of the median nodal roots. The measured lengths were compared to the infested and un-infested untreated checks to determine the mean percent control offered to protect the corn roots.

[7] = system: Western Flower Thrips (Frankliniella occidentalis, FRANOC, WFT); assay: Bioassay 3: western flower thrips, cotton leaf disc dip; conditions: 3 days
Description: Stock solutions of F1 and various active ingredients were prepared initially at a concentration of 0.1 mg/mL using acetone as a diluent. Stock solutions were prepared with F1 as well as for each of the active ingredients individually. Test solutions were prepared from the stock solutions. Test solutions were prepared containing F1, the individual active ingredients, and mixtures of F1 with each of the active ingredients. The test solutions for F1 and the individual active ingredients were prepared by adding 500 μL of stock solution to a 25 mL glass vial, then adding 500 μL of acetone, followed by the addition of 9 mL water with 0.025% Tween® 20 to create a 0.0005% (w/v) solution. The test solutions containing mixtures of F1, and the individual active ingredients were prepared by adding 500 μL of the active ingredient stock solution to a 25 mL glass vial, followed by 500 μL of the F1 stock solution, then by the addition of 9 mL water with 0.025% Tween® 20 to create a test solution containing 0.0005% (w/v) F1 and 0.0005% (w/v) of the active ingredient. Each test solution was serially diluted to create desired doses of test solutions (0.0005% (w/v), 0.000125% (w/v), 0.00003125% (w/v), 0.0000078% (w/v), and 0.00000195% (w/v)).
The test solutions were tested against WFT using the following procedure: Leaf discs (2.7 cm in diameter) were cut from the true leaves of cotton plants. Leaf discs were dipped into the test solutions and shaken to ensure complete coverage of the leaf disc and then placed in Millipore® PetriSlides containing a filter paper disc. Treated leaf discs were air dried for approximately 1 hour. Each leaf disc was infested with 5 WFT (9-10-day old nymphs) by placement on each leaf disc, and the PetriSlides were capped to prevent escape. Each treatment was replicated three times and the test treatments were held at approximately 26° C. and ambient relative humidity (RH) prior to grading. Reference discs (solvent check) were treated with the diluent only. Evaluation was conducted by counting the number of live WFT under magnification 3 days after treatment. Percent control was measured using Abbott's correction formula (W. S. Abbott, J. Econ. Entomol. 18 (1925), pp. 265-267) as follows:
where X=No. of live nymphs on solvent check leaf discs and Y=No. of live nymphs on treated leaf discs. In Table B3 the “Expected % Control” was calculated using the method described in Colby S. R., Weeds, 1967, 15, 20-22. Bioassay 4: Corn Earworm (Helicoverpa zea, HELIZE, “CEW”), Fall Armyworm (Spodoptera frugiperda, LAPHFR, “FAW”), and Soybean Looper (Chrysodeixis includens, PSEPIN, “SBL”).

CNC(=O)c1cc(Cl)cc(C)c1NC(=O)c1cc(Br)nn1-c1ncccc1Cl [Chlorantraniliprole]
Average % Control AI ([1]; 0.000004 wt %): 37.5%
Average % Control AI ([2]; 0.000004 wt %): 62.5%
Average % Control AI [3]: 8.1%
Average % Control AI ([4]; 0.000004 wt %): 0.0%
Average % Control AI ([4]; 0.00004 wt %): 0.0%
Average % Control AI [5]: 28.0%

CO/N=C(/C1=NOCCO1)c1ccccc1Oc1ncnc(Oc2ccccc2Cl)c1F [Fluoxastrobin]
Average % Control AI [6]: 0.0%

CN/C(=N\[N+](=O)[O-])NCc1cnc(Cl)s1 [Clothianidin]
Average % Control AI [6]: 14.8%

N#Cc1nn(-c2c(Cl)cc(C(F)(F)F)cc2Cl)c(N)c1[S+]([O-])C(F)(F)F (centres unmarked) [Fipronil]
Average % Control AI ([7]; AI alone at 1:1 rate to F1 0.195 (10^-6 Wt %)): 9.5%
Average % Control AI ([7]; AI alone at 1:1 rate to F1 3.125 (10^-6 Wt %)): 42.9%
Average % Control AI ([1]; 0.000004 wt %): 0.0%
Average % Control AI ([1]; 0.00004 wt %): 0.0%
Average % Control AI ([2]; 0.000004 wt %): 0.0%
Average % Control AI ([2]; 0.00004 wt %): 0.0%
Average % Control AI ([4]; 0.000004 wt %): 0.0%
Average % Control AI ([4]; 0.00004 wt %): 0.0%
Average % Control AI [5]: 8.9%
